In US9018208B2, “Heterocycles as potassium channel modulators” (Icagen Inc., priority 2007, dated 2015):

These compounds were tested on SH-SY5Y M-currents (KCNQ2, KCNQ3 and KCNQ5) (assay: SH-SY5Y native cell line FLIPR assay (voltage-sensitive dye DiBAC)). Conditions: FLIPR assay, SH-SY5Y native cell line; Table 1; read-out: SH-SY5Y EC50.
Assay type: cell-based, mouse neuroblastoma, rat glioma hybrid cell line
Text: SH-SY5Y cells, a mouse neuroblastoma, rat glioma hybrid cell line, functionally express M-currents (Robbins et al., J. Physiol. 451: 159-85 (1992). SH-SY5Y M-currents are likely comprised, at least in part, of KCNQ2, KCNQ3 and KCNQ5, since these genes are reportedly robustly expressed in differentiated SH-SY5Y cells (Selyanko et al., J. Neurosci. 19(18): 7742-56 (1999); Schroeder et al., J. Biol. Chem. 275(31): 24089-95 (2000)) and KCNQ3 dominant-negative constructs reduce M-current density in these cells (Selyanko et al., J. Neurosci. 22(5): RC212 (2002).
SH-SY5Y were maintained in DMEM (high glucose) supplemented with 10% fetal bovine serum, 0.05 mM pyridoxine, 0.1 mM hypoxanthine, 400 nM aminopterin, […], 50 μgml^−1 gentamycin and 10 mM HEPES, in an incubator at 37° C. with a humidified atmosphere of 5% CO2. Cells were plated in 96 well plates differentiated by addition of 10 μM PGE1 and 50 μM isomethylbutylxanthine to the growth media prior to study.
Differentiated SH-SY5Y cells were loaded with voltage-sensitive dye by incubation in Earls Balanced Salt Solution (EBSS) containing […] DiBAC for 1 h. Following loading, drug solution containing […] DiBAC was added to each well. Changes in fluorescence were measured every 30 s for 25 min. The maximum change in fluorescence was measured and expressed as a percentage of the maximum response obtained in the presence of a positive control agent.

Row | SMILES | EC50 [µM]
1 | CC(C)(C)Cc1c(NC(=O)C2CCC(F)(F)CC2)nc2ccccn12 [Compound 87, 4,4-difluoro-N-(3-neopentylimidazo[1,2-a]pyridin-2-yl)cyclohexanecarboxamide] | 0.5 to 3
2 | CC(C)(C)CC(=O)Nc1nc2ccccn2c1CC(C)(C)C [Compound 88, 3,3-dimethyl-N-(3-neopentylimidazo[1,2-a]pyridin-2-yl)butanamide] | 0.5 to 3
3 | C[C@@H](CC(=O)Nc1nc2ccc(C(F)(F)F)cn2c1C1CC1)C(F)(F)F [Compound 90, (S)—N-(3-cyclopropyl-6-(trifluoromethyl)imidazo[1,2-a]pyridin-2-yl)-4,4,4-trifluoro-3-methylbutanamide] | 0.5 to 3

Same assay, conditions: FLIPR assay, SH-SY5Y native cell line; Table 2; read-out: SH-SY5Y EC50

Row | SMILES | EC50 [µM]
4 | O=C(Nc1nc2ccc(F)cn2c1-c1ccccc1)C(F)(F)F [Compound 91, 2,2,2-trifluoro-N-(6-fluoro-3-phenylimidazo[1,2-a]pyridin-2-yl)acetamide] | 3 to 10
5 | O=C(Cc1ccc(F)cc1)Nc1nc2ccc(F)cn2c1-c1ccccc1 [Compound 92, N-(6-fluoro-3-phenylimidazo[1,2-a]pyridin-2-yl)-2-(4-fluorophenyl)acetamide] | 0.5 to 3
6 | CC(C)(C)CC(=O)Nc1nc2ccc(F)cn2c1-c1ccccc1 [Compound 93, N-(6-fluoro-3-phenylimidazo[1,2-a]pyridin-2-yl)-3,3-dimethylbutanamide] | 0.5 to 3
7 | O=C(CC1CCCC1)Nc1nc2ccc(F)cn2c1-c1ccccc1 [Compound 94, 2-cyclopentyl-N-(6-fluoro-3-phenylimidazo[1,2-a]pyridin-2-yl)acetamide] | < 0.5
8 | O=C(CC(F)(F)F)Nc1nc2ccc(F)cn2c1-c1ccccc1 [Compound 95, 3,3,3-trifluoro-N-(6-fluoro-3-phenylimidazo[1,2-a]pyridin-2-yl)propanamide] | 3 to 10
9 | O=C(Cc1ccccc1)Nc1nc2ccc(F)cn2c1-c1ccccc1 [Compound 96, N-(6-fluoro-3-phenylimidazo[1,2-a]pyridin-2-yl)-2-phenylacetamide] | 0.5 to 3
10 | O=C(CCC(F)(F)F)Nc1nc2ccc(F)cn2c1-c1ccccc1 [Compound 97, 4,4,4-trifluoro-N-(6-fluoro-3-phenylimidazo[1,2-a]pyridin-2-yl)butanamide] | 0.5 to 3
11 | O=C(CC1CCCC1)Nc1nc2cc(C(F)(F)F)ccn2c1-c1ccccc1 [Compound 98, 2-cyclopentyl-N-(3-phenyl-7-(trifluoromethyl)imidazo[1,2-a]pyridin-2-yl)acetamide] | 0.5 to 3
12 | O=C(Cc1ccc(F)cc1)Nc1nc2cc(C(F)(F)F)ccn2c1-c1ccccc1 [Compound 99, 2-(4-fluorophenyl)-N-(3-phenyl-7-(trifluoromethyl)imidazo[1,2-a]pyridin-2-yl)acetamide] | < 0.5
13 | CC(C)(C)CC(=O)Nc1nc2cc(C(F)(F)F)ccn2c1-c1ccccc1 [Compound 100, 3,3-dimethyl-N-(3-phenyl-7-(trifluoromethyl)imidazo[1,2-a]pyridin-2-yl)butanamide] | 0.5 to 3
14 | O=C(Cc1ccccc1)Nc1nc2cc(C(F)(F)F)ccn2c1-c1ccccc1 [Compound 101, 2-phenyl-N-(3-phenyl-7-(trifluoromethyl)imidazo[1,2-a]pyridin-2-yl)acetamide] | 0.5 to 3
15 | O=C(Cc1ccc(F)cc1)Nc1nc2ccc(F)cn2c1-c1ccc(F)cc1 [Compound 102, N-(6-fluoro-3-(4-fluorophenyl)imidazo[1,2-a]pyridin-2-yl)-2-(4-fluorophenyl)acetamide] | < 0.5
16 | CC(C)(C)CC(=O)Nc1nc2ccc(F)cn2c1-c1ccc(F)cc1 [Compound 103, N-(6-fluoro-3-(4-fluorophenyl)imidazo[1,2-a]pyridin-2-yl)-3,3-dimethylbutanamide] | < 0.5
17 | O=C(CC(F)(F)F)Nc1nc2cc(C(F)(F)F)ccn2c1-c1ccccc1 [Compound 104, 3,3,3-trifluoro-N-(3-phenyl-7-(trifluoromethyl)imidazo[1,2-a]pyridin-2-yl)propanamide] | 3 to 10

Same assay, conditions: read-out: SH-SY5Y_EC50

Row | SMILES | EC50 [µM]
18 | O=C(Cc1ccc(F)cc1)Nc1nc2ccc(F)cn2c1-c1ccccc1 [Compound 92, N-(6-fluoro-3-phenylimidazo[1,2-a]pyridin-2-yl)-2-(4-fluorophenyl)acetamide] | 0.732
